Reference: US6602888B2, “Use of α1C specific compounds to treat benign prostatic hyperplasia” (Synaptic Pharmaceutical Corporation, priority 1992, dated 2003)
Where two headings read alike, the source gives them in different places.

Molecular target: T1, human α1B adrenergic receptor (Homo sapiens, UniProt P35368)
T1 sequence (P35368 1-520): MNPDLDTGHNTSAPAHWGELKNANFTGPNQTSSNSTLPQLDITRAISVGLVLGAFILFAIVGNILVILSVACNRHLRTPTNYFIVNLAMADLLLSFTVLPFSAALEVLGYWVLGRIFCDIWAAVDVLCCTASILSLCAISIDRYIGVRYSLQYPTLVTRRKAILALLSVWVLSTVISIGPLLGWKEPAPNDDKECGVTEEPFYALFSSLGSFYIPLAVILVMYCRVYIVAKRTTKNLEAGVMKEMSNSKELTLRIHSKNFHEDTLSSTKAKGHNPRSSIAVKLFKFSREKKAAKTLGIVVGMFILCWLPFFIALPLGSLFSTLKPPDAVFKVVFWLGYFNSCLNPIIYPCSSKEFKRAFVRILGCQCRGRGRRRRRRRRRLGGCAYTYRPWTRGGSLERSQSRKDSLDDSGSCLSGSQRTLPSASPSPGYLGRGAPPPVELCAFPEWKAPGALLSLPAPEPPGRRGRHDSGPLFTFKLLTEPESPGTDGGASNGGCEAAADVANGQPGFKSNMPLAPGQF
Assay: Radioligand binding, [3H]prazosin, cloned human α1B adrenergic receptor

Compound	Alpha-1 Adrenergic a1B (pK1)	Human Alpha-1 Adrenergic (pK1) a1B	Human Alpha-1 Adrenergic (pK1) a1B (Table 1, cloned human receptor)	Alpha-1 Adrenergic a1B (pK1) (Table 2, cloned human receptor)	Ki
4-fluoro-4-(8-fluoro-1,3,4,5-tetrahydro-2H-pyrido[4,3-b]indol-2-yl)butyrophenone hydrochloride [Compound A-30360, reference compound]	7.86	7.86	–	–	–
COc1ccccc1N1CCN(CCCNc2c(C)c(=O)n(C)c(=O)n2C)CC1 [5-Methyl-Urapidil, 5-methylurapidil, reference compound]	6.77	6.77	–	–	–
O=C(CCCN1CCC(NC(=O)c2ccccc2)CC1)c1ccc(Cl)cc1 [Compound 7]	–	–	7.18	7.18	–
O=C(CCCN1CCC(NC(=O)c2ccccc2)CC1)c1ccccc1 [Compound 9]	–	–	6.76	6.76	–
COc1ccc(CCNCC2CCc3ccccc3C2)cc1 (stereo not shown) [Compound 11, 2-[(4-Methoxyphenethyl)aminomethyl]-1,2,3,4-tetrahydronaphthalene]	–	–	–	7.14	72.4 nM
